From patent US8063096B2, “Spirocyclic 3-phenyl-3substituted-4-ketolactams and-lactones” (Bayer Cropscience AG, priority 2001, dated 2011) come the findings set out here.

Molecules are shown by their SMILES.

Holding throughout (format): in vivo
In assay [1] the test system is Alopecurus. The assay can be described thus: Pre-emergence test, Alopecurus. Conditions: pre-emergence/greenhouse; 250 g of ai/ha; after three weeks. Here is the method:
(§1) [table] To produce a suitable preparation of active compound, 1 part by weight of active compound is mixed with the stated amount of solvent, the stated amount of emulsifier is added and the concentrate is diluted with water to the desired concentration. Seeds of the test plants are sown in normal soil. After about 24 hours, the soil is sprayed with the preparation of active compound such that the particular amounts of active compound desired are applied per unit area. The concentration of the spray liquor is chosen such that the particular amounts of active compound desired are applied in 1000 l of water/ha. After three weeks, the degree of damage to the plants is rated in % damage in comparison to the development of the untreated control. The figures denote: • 0%=no effect (like untreated control) • 100%=total destruction

Assay [2] deals with Avena fatua. The assay can be described thus: Pre-emergence test, Avena fatua. Particulars: pre-emergence/greenhouse; 250 g of ai/ha; after three weeks. Here is the method:
as §1

For assay [3], the system named is Echinochloa. Put plainly: Pre-emergence test, Echinochloa. Conditions: pre-emergence/greenhouse; 250 g of ai/ha; after three weeks. Here is the method:
as §1

The test system of assay [4] is Setaria. Put plainly: Pre-emergence test, Setaria. Conditions: pre-emergence/greenhouse; 250 g of ai/ha; after three weeks. Here is the method:
as §1

The test system of assay [5] is Sugar beet. Put plainly: Pre-emergence test, Sugar beet. Conditions: pre-emergence/greenhouse; 250 g of ai/ha; after three weeks; crop. Here is the method: as §1
The subject of assay [6] is Alopecurus. Put plainly: Post-emergence test, Alopecurus. Particulars: post-emergence/greenhouse; 250 g of ai/ha; after three weeks. Here is the method:
as §1, with “Test plants” for “Seeds”, “a height of 5-15 cm” for “the test plants”, “are” for “are sown in normal soil. After about 24 hours, the soil is”, “(=like” for “(like”

Assay [7] relates to Avena fatua. Put plainly: Post-emergence test, Avena fatua. Particulars: post-emergence/greenhouse; 250 g of ai/ha; after three weeks. Here is the method:
as §1, with “Test plants” for “Seeds”, “a height of 5-15 cm” for “the test plants”, “are” for “are sown in normal soil. After about 24 hours, the soil is”, “(=like” for “(like”

The subject of assay [8] is Echinochloa. Put plainly: Post-emergence test, Echinochloa. Particulars: post-emergence/greenhouse; 250 g of ai/ha; after three weeks. Here is the method: as §1, with “Test plants” for “Seeds”, “a height of 5-15 cm” for “the test plants”, “are” for “are sown in normal soil. After about 24 hours, the soil is”, “(=like” for “(like”
The test system of assay [9] is Setaria. The assay can be described thus: Post-emergence test, Setaria. Particulars: post-emergence/greenhouse; 250 g of ai/ha; after three weeks. Here is the method: as §1, with “Test plants” for “Seeds”, “a height of 5-15 cm” for “the test plants”, “are” for “are sown in normal soil. After about 24 hours, the soil is”, “(=like” for “(like”
The test system of assay [10] is Sugar beet. Put plainly: Post-emergence test, Sugar beet. Particulars: post-emergence/greenhouse; 250 g of ai/ha; after three weeks; crop. Here is the method:
as §1, with “Test plants” for “Seeds”, “a height of 5-15 cm” for “the test plants”, “are” for “are sown in normal soil. After about 24 hours, the soil is”, “(=like” for “(like”

For assay [11], the system named is Phaedon cochleariae. Put plainly: Phaedon larvae test. Conditions: 500 ppm active compound, cabbage leaves dipped. Here is the method: (§2) [table] To produce a suitable preparation of active compound, 1 part by weight of active compound is mixed with the stated amounts of solvent and emulsifier, and the concentrate is diluted with emulsifier-containing water to the desired concentration. Cabbage leaves (Brassica oleracea) are treated by being dipped into the preparation of active compound of the desired concentration and are populated with larvae of the mustard beetle (Phaedon cochleariae) while leaves are still moist. After the desired period of time, the kill in % is determined. 100% means that all beetle larvae have been killed; 0% means that none of the beetle larvae have been killed.

Assay [12] has as its system Amaranthus. The assay can be described thus: Pre-emergence test, Amaranthus. Particulars: pre-emergence/greenhouse; 250 g of ai/ha; after three weeks. Here is the method: as §1
The test system of assay [13] is Sinapis. Put plainly: Pre-emergence test, Sinapis. Conditions: pre-emergence/greenhouse; 250 g of ai/ha; after three weeks. Here is the method: as §1
Assay [14] has as its system Amaranthus. Put plainly: Post-emergence test, Amaranthus. Conditions: post-emergence/greenhouse; 250 g of ai/ha; after three weeks. Here is the method: as §1, with “Test plants” for “Seeds”, “a height of 5-15 cm” for “the test plants”, “are” for “are sown in normal soil. After about 24 hours, the soil is”, “(=like” for “(like”
Assay [15] relates to Sinapis. Put plainly: Post-emergence test, Sinapis. Conditions: post-emergence/greenhouse; 250 g of ai/ha; after three weeks. Here is the method:
as §1, with “Test plants” for “Seeds”, “a height of 5-15 cm” for “the test plants”, “are” for “are sown in normal soil. After about 24 hours, the soil is”, “(=like” for “(like”

The subject of assay [16] is Meloidogyne incognita. The assay can be described thus: Meloidogyne test (gall formation on lettuce roots). Conditions: 20 ppm active compound, nematicidal action by gall formation. Here is the method:
[table] To produce a suitable preparation of active compound, 1 part by weight of active compound is mixed with the stated amounts of solvent and emulsifier, and the concentrate is diluted with water to the desired concentration. Vessels are filled with sand, solution of active compound, Meloidogyne incognita egg/larvae suspension and lettuce seeds. The lettuce seeds germinate and the plants develop. On the roots, galls develop. After the desired period of time, the nematicidal action is determined in % by the formation of galls. 100% means that no galls have been found; 0% means that the number of galls on the treated plants corresponds to that of the untreated control.

In assay [17] the test system is Myzus persicae. The assay can be described thus: Myzus test (leaf dip, cabbage). Particulars: 500 ppm active compound, cabbage leaves dipped. Here is the method:
as §2, with “oleracea) which are heavily infested by peach aphids (Myzus persicae)” for “oleracea)”, “concentration.” for “concentration and are populated with larvae of the mustard beetle (Phaedon cochleariae) while leaves are still moist.”, “aphids” for “beetle larvae”

For assay [18], the system named is Plutella xylostella. Put plainly: Plutella test. Particulars: 500 ppm active compound, cabbage leaves dipped. Here is the method:
as §2, with “caterpillars” for “larvae”, “diamondback moth (Plutella xylostella)” for “mustard beetle (Phaedon cochleariae)”, “caterpillars” for “beetle larvae”

The test system of assay [19] is Aphis gossypii. The assay can be described thus: Test for persistency: Aphis gossypii (root-systemic action). Particulars: 4 ppm in soil, cotton. Here is the method:
(§3) [table] To produce a suitable preparation of active compound, 1 part by weight of active compound is mixed with the stated amounts of solvent and emulsifier, and the concentrate is diluted with water to the desired concentration. The preparation of active compound is mixed intimately with the soil. The stated concentration refers to the amount of active compound per volume unit of soil (mg/l). The treated soil is filled into pots, and into these pots is planted cotton at the cotyledon stage. In this way, the active compound can be taken up from the soil into the roots of the plants and be transported into the leaves. After the stated number of days, cotton aphids (Aphis gossypii) are, in infection chambers, placed on the leaves. After the desired period of time, the kill in % is determined. 100% means that all aphids have been killed; 0% means that none of the aphids have been killed.

Assay [20] relates to Myzus persicae. The assay can be described thus: Test for persistency: Myzus persicae (root-systemic action). Particulars: 4 ppm in soil, broad beans. Here is the method: as §3, with “pre-germinated broad beans.” for “cotton at the cotyledon stage.”, “peach” for “cotton”, “(Myzus persicae)” for “(Aphis gossypii)”

For `CCc1cc(Br)cc(C)c1C1(Cl)C(=O)NC2(CCCOC2)C1=O` (stereo not shown) [Ex. I-1-b-12], the “% damage, Alopecurus” value in assay [1] worked out at 95%; in assay [6], 90%. The “% damage, Avena fatua” value in assay [2] and in assay [7] was 100% each time. The “% damage, Echinochloa” value in [3] and in [8] was 100% each time. The “% damage, Setaria” value in [4] and in [9] was 100% in each case. For the same molecule, the “% damage, Sugar beet” value in [5] and in assay [10] was 0% throughout.
As for `COC1CCC2(CC1)NC(=O)C(Cl)(c1c(Cl)cc(C)cc1Cl)C2=O` (stereo not shown) [Ex. I-1-a-6], the “Kill rate in % after 7d” value in [11] was found to be 100%. Moreover, the “% damage, Alopecurus” value is on record as 100% in assay [1] and 95% in [6]. Further, the “% damage, Avena fatua” value in [2] and in assay [7] was 95% throughout. For the same molecule, the figures for the “% damage, Echinochloa” value in [3] and in assay [8] were 95% and 100%, respectively. For the same molecule, the “% damage, Setaria” value in assay [4] and in assay [9] was 100% each time. The results for the “% damage, Amaranthus” value in assay [12] and in [14] were 100% and 90%, respectively. Also, the figures for the “% damage, Sinapis” value in [13] and in assay [15] were 90% and 80%, respectively.
In the case of `CCc1cc(Br)cc(C)c1C1(Cl)C(=O)NC2(CCC(OC)CC2)C1=O` (stereo not shown) [Ex. I-1-a-26], the “Kill rate in % after 7d” value in assay [11] was determined as 100%. Also, the “% damage, Alopecurus” value in assay [6] worked out at 100%. Further, the “% damage, Avena fatua” value in [7] came to 100%. Further, the “% damage, Echinochloa” value in [8] is listed as 100%. Also, the “% damage, Setaria” value in assay [9] is recorded as 100%. Moreover, in assay [15], the “% damage, Sinapis” value was 80%. Also, the “% damage, Sugar beet” value in [10] is given as 0%.
With `CCOC1CCC2(CC1)NC(=O)C(Cl)(c1c(C)cc(C)cc1C)C2=O` (stereo not shown) [Ex. I-1-a-4], the “% damage, Alopecurus” value in assay [1] was 100%; in assay [6], 95%. Moreover, the “% damage, Avena fatua” value in assay [2] amounted to 90%; in assay [7], 95%. Also, the “% damage, Echinochloa” value in [3] and in assay [8] was 100% in each case. Besides, the “% damage, Setaria” value in assay [4] and in assay [9] was 100% each time. Besides, the “% damage, Amaranthus” value in assay [12] came out at 100%; in assay [14], 90%. Further, the “% damage, Sinapis” value in [13] and in [15] was 95% throughout.
On to `CCc1cc(Cl)cc(CC)c1C1(Cl)C(=O)NC2(CCC(OC)CC2)C1=O` (stereo not shown) [Ex. I-1-a-43], for which, in assay [16], the “Kill rate in % after 14d” value stood at 95%. In addition, the “Kill rate in % after 6d” value in [17] is recorded as 90%. The “% damage, Alopecurus” value was 95% in [1] and 90% in [6]. The “% damage, Avena fatua” value in [2] and in [7] was 100% each time. Also, the “% damage, Echinochloa” value in [3] and in [8] was 100% each time. Further, the “% damage, Setaria” value in [4] and in assay [9] was 100% in each case. In addition, the “% damage, Sugar beet” value in [5] and in assay [10] was 0% in each case. Further, the “% damage, Sinapis” value in assay [15] was found to be 70%.
In the case of `Cc1cc(Br)cc(Cl)c1C1(Cl)C(=O)NC2(CCOCC2)C1=O` (stereo not shown) [Ex. I-1-c-2], the “Kill rate in % after 7d” value in assay [18] is listed as 100%; in assay [19] (infection after 7 d) it was 100%; in assay [19] (infection after 21 d), 98^ %; in assay [19] (infection after 35 d) it was 98^ %; in [20] (infection after 7 d), 100%; in assay [20] (infection after 21 d), 100%. The “Kill rate in % after 7d” value in assay [20] (infection after 35 d) came out at 99%.
For the molecule `COC1CCC2(CC1)NC(=O)C(Cl)(c1c(C)cc(Br)cc1Cl)C2=O` (stereo not shown) [Ex. I-1-a-10], in assay [17], the “Kill rate in % after 6d” value was found to be 99%. The “% damage, Alopecurus” value in assay [1] is 100%; in assay [6], 90%. Further, the “% damage, Avena fatua” value in assay [2] and in assay [7] was 90% throughout. Moreover, the “% damage, Echinochloa” value in assay [3] and in [8] was 100% each time. Further, the “% damage, Setaria” value in assay [4] and in assay [9] was 100% throughout. In addition, the “% damage, Amaranthus” value in assay [12] and in [14] was 80% each time. Also, the results for the “% damage, Sinapis” value in assay [13] and in assay [15] were 90% and 80%, respectively.
As to `CCc1cc(Br)cc(Cl)c1C1(Cl)C(=O)NC2(CCC(OC)CC2)C1=O` (stereo not shown) [Ex. I-1-a-44], the “Kill rate in % after 6d” value in assay [17] was 98%. Besides, the figures for the “% damage, Alopecurus” value in assay [1] and in assay [6] were 100% and 95%, respectively. Besides, the “% damage, Avena fatua” value in assay [2] and in assay [7] was 100% each time. Besides, the “% damage, Echinochloa” value in [3] and in assay [8] was 100% throughout. Further, the “% damage, Setaria” value in [4] and in assay [9] was 100% throughout. Further, the “% damage, Sinapis” value in [13] was determined as 80%; in assay [15], 70%. Moreover, the “% damage, Sugar beet” value in assay [5] and in assay [10] was 0% throughout.
